{
  "source": "patent US20210308173A1",
  "about": "“PHARMACEUTICAL COMPOSITION COMPRISING CYCLODEXTRIN COMPLEXES OF ANETHOLE TRITHIONE OR DERIVATIVES THEREOF” (priority 2018, published 2021)",
  "assay_type_in_all_cases": "physicochemical",
  "key": {"[1]": {"test": "Solubility testing in buffer containing media", "description": "The solubility of AOL was tested in aqueous HP-β-CD and SBE-β-CD media at various concentrations and pH levels at room temperature. Some initial tests, where the pH of the formulations was adjusted only by addition of HCl or NaOH solutions, did evidence high variation in pH and difficulties to reach the target pH. Therefore, it was decided to prepare samples containing a buffering agent to get a stable pH and to facilitate the preparation of the formulations.\nA citrate buffer was used at pH 5.5 and phosphate buffer were used at pH 6.5 and 7.5. The solubility (mg/mL) is the mean of 2 independent replicates."}, "[2]": {"test": "Optimal SBE-β-CD/AOL molar ratio for solubilization", "source_text": "Using an optimized AOL/SBE-β-CD molar ratio enabled the Applicant to overcome all the aforementioned shortcomings. Indeed, the obtained formulation can be injected without exceeding the daily cyclodextrin administration threshold, solubilizes AOL without presenting a prohibiting viscosity. The chemical stability of AOL was maintained by such a formulation. […] Without willing to be bound by a theory the complex association (interaction outside the cavity of the cyclodextrin) enhances its solubility without hindering its bioavailability when the formulation is administered to a subject in need thereof."}, "[3]": {"test": "Co-solvent addition: AOL solubility", "conditions": "for solubility at 4 h: aqueous HP-β-CD solution, aqueous with cosolvent or surfactant or cyclodextrin, thermodynamic from solid, HP-β-CD 20% (w/w)", "description": "SBE-β-CD compatible excipients, namely polyethylene glycol and polysorbate (Tween), were evaluated for their AOL aqueous solubilizing power. Screening was carried out in same conditions as that of solubilization screening by cyclodextrins (see Example 3).\nBriefly, 20% (w/w) solutions of each excipient were prepared. An excess of AOL was added and the solutions were analyzed by HPLC after 4 hours of stirring.\nThe effect of the combination of SBE-β-CD and Tween 80 was measured in a comparative assay by solubilizing AOL in: (A) Tween 80, 10% (w/w); (B) SBE-β-CD 10% (w/w) (C) Tween 80 and SBE-β-CD 10% (w/w) each; (D) Tween 80 20% (w/w) (E) SBE-β-CD 20% (w/w); and (F) Tween 80 and SBE-β-CD 20% (w/w) each.\nFurther assays, resumed in Tables 7 and 8, confirmed that Tween 80/SBE-β-CD is a promising excipient mixture for the solubilization of AOL."}},
  "note": "Read-outs that look alike come from different tables or passages of the source.",
  "data": [
    {"compound": "COc1ccc(-c2cc(=S)ss2)cc1", "note": "[AOL, 5-(4-methoxyphenyl)-3H-1,2-dithiole-3-thione]", "values": [
      {"measurement": "solubility", "setting": "[1]; aqueous SBE-β-CD medium with buffer, pH 5.5, aqueous with cosolvent or surfactant or cyclodextrin, SBE-β-CD 10.0% (w/w), Citrate (100 μM), room temperature, read-out: AOL solubility", "result": 165, "unit": "µg/mL"},
      {"measurement": "solubility", "setting": "[1]; aqueous SBE-β-CD medium with buffer, pH 5.5, aqueous with cosolvent or surfactant or cyclodextrin, SBE-β-CD 40.0% (w/w), Citrate (100 μM), room temperature, read-out: AOL solubility", "result": 1140, "unit": "µg/mL"},
      {"measurement": "solubility", "setting": "[1]; aqueous SBE-β-CD medium with buffer, pH 6.5, aqueous with cosolvent or surfactant or cyclodextrin, SBE-β-CD 10.0% (w/w), Phosphate 6.5 (100 μM), room temperature, read-out: AOL solubility", "result": 168, "unit": "µg/mL"},
      {"measurement": "solubility", "setting": "[1]; aqueous SBE-β-CD medium with buffer, pH 6.5, aqueous with cosolvent or surfactant or cyclodextrin, SBE-β-CD 40.0% (w/w), Phosphate 6.5 (100 μM), room temperature, read-out: AOL solubility", "result": 1210, "unit": "µg/mL"},
      {"measurement": "solubility", "setting": "[1]; aqueous SBE-β-CD medium with buffer, pH 7.5, aqueous with cosolvent or surfactant or cyclodextrin, SBE-β-CD 40.0% (w/w), Phosphate 7.5 (100 μM), room temperature, read-out: AOL solubility", "result": 1180, "unit": "µg/mL"},
      {"measurement": "solubility", "setting": "[1]; buffered aqueous HP-β-CD medium, pH 5.5, aqueous with cosolvent or surfactant or cyclodextrin, HP-β-CD 10.0% (w/w), Citrate (100 μM), room temperature, read-out: AOL solubility", "result": 79, "unit": "µg/mL"},
      {"measurement": "solubility", "setting": "[1]; buffered aqueous HP-β-CD medium, pH 5.5, aqueous with cosolvent or surfactant or cyclodextrin, HP-β-CD 20.0% (w/w), Citrate (100 μM), room temperature, read-out: AOL solubility", "result": 212, "unit": "µg/mL"},
      {"measurement": "solubility", "setting": "[1]; buffered aqueous HP-β-CD medium, pH 5.5, aqueous with cosolvent or surfactant or cyclodextrin, HP-β-CD 30.0% (w/w), Citrate (100 μM), room temperature, read-out: AOL solubility", "result": 505, "unit": "µg/mL"},
      {"measurement": "solubility", "setting": "[1]; buffered aqueous HP-β-CD medium, pH 5.5, aqueous with cosolvent or surfactant or cyclodextrin, HP-β-CD 40.0% (w/w), Citrate (100 μM), room temperature, read-out: AOL solubility", "result": 721, "unit": "µg/mL"},
      {"measurement": "solubility", "setting": "[1]; buffered aqueous HP-β-CD medium, pH 6.5, aqueous with cosolvent or surfactant or cyclodextrin, HP-β-CD 10.0% (w/w), Phosphate 6.5 (100 μM), room temperature, read-out: AOL solubility", "result": 111, "unit": "µg/mL"},
      {"measurement": "solubility", "setting": "[1]; buffered aqueous HP-β-CD medium, pH 6.5, aqueous with cosolvent or surfactant or cyclodextrin, HP-β-CD 20.0% (w/w), Phosphate 6.5 (100 μM), room temperature, read-out: AOL solubility", "result": 274, "unit": "µg/mL"},
      {"measurement": "solubility", "setting": "[1]; buffered aqueous HP-β-CD medium, pH 6.5, aqueous with cosolvent or surfactant or cyclodextrin, HP-β-CD 30.0% (w/w), Phosphate 6.5 (100 μM), room temperature, read-out: AOL solubility", "result": 480, "unit": "µg/mL"},
      {"measurement": "solubility", "setting": "[1]; buffered aqueous HP-β-CD medium, pH 6.5, aqueous with cosolvent or surfactant or cyclodextrin, HP-β-CD 40.0% (w/w), Phosphate 6.5 (100 μM), room temperature, read-out: AOL solubility", "result": 676, "unit": "µg/mL"},
      {"measurement": "solubility", "setting": "[1]; buffered aqueous HP-β-CD medium, pH 7.5, aqueous with cosolvent or surfactant or cyclodextrin, HP-β-CD 10.0% (w/w), Phosphate 7.5 (100 μM), room temperature, read-out: AOL solubility", "result": 112, "unit": "µg/mL"},
      {"measurement": "solubility", "setting": "[1]; buffered aqueous HP-β-CD medium, pH 7.5, aqueous with cosolvent or surfactant or cyclodextrin, HP-β-CD 20.0% (w/w), Phosphate 7.5 (100 μM), room temperature, read-out: AOL solubility", "result": 283, "unit": "µg/mL"},
      {"measurement": "solubility", "setting": "[1]; buffered aqueous HP-β-CD medium, pH 7.5, aqueous with cosolvent or surfactant or cyclodextrin, HP-β-CD 30.0% (w/w), Phosphate 7.5 (100 μM), room temperature, read-out: AOL solubility", "result": 540, "unit": "µg/mL"},
      {"measurement": "solubility", "setting": "[1]; buffered aqueous HP-β-CD medium, pH 7.5, aqueous with cosolvent or surfactant or cyclodextrin, HP-β-CD 40.0% (w/w), Phosphate 7.5 (100 μM), room temperature, read-out: AOL solubility", "result": 723, "unit": "µg/mL"},
      {"measurement": "solubility", "setting": "[1]; buffered aqueous SBE-β-CD medium, pH 5.5, aqueous with cosolvent or surfactant or cyclodextrin, SBE-β-CD 20.0% (w/w), Citrate (100 μM), room temperature, read-out: AOL solubility", "result": 369, "unit": "µg/mL"},
      {"measurement": "solubility", "setting": "[1]; buffered aqueous SBE-β-CD medium, pH 5.5, aqueous with cosolvent or surfactant or cyclodextrin, SBE-β-CD 30.0% (w/w), Citrate (100 μM), room temperature, read-out: AOL solubility", "result": 675, "unit": "µg/mL"},
      {"measurement": "solubility", "setting": "[1]; buffered aqueous SBE-β-CD medium, pH 6.5, aqueous with cosolvent or surfactant or cyclodextrin, SBE-β-CD 20.0% (w/w), Phosphate 6.5 (100 μM), room temperature, read-out: AOL solubility", "result": 382, "unit": "µg/mL"},
      {"measurement": "solubility", "setting": "[1]; buffered aqueous SBE-β-CD medium, pH 6.5, aqueous with cosolvent or surfactant or cyclodextrin, SBE-β-CD 30.0% (w/w), Phosphate 6.5 (100 μM), room temperature, read-out: AOL solubility", "result": 676, "unit": "µg/mL"},
      {"measurement": "solubility", "setting": "[1]; buffered aqueous SBE-β-CD medium, pH 7.5, aqueous with cosolvent or surfactant or cyclodextrin, SBE-β-CD 10.0% (w/w), Phosphate 7.5 (100 μM), room temperature, read-out: AOL solubility", "result": 170, "unit": "µg/mL"},
      {"measurement": "solubility", "setting": "[1]; buffered aqueous SBE-β-CD medium, pH 7.5, aqueous with cosolvent or surfactant or cyclodextrin, SBE-β-CD 20.0% (w/w), Phosphate 7.5 (100 μM), room temperature, read-out: AOL solubility", "result": 375, "unit": "µg/mL"},
      {"measurement": "solubility", "setting": "[1]; buffered aqueous SBE-β-CD medium, pH 7.5, aqueous with cosolvent or surfactant or cyclodextrin, SBE-β-CD 30.0% (w/w), Phosphate 7.5 (100 μM), room temperature, read-out: AOL solubility", "result": 685, "unit": "µg/mL"},
      {"measurement": "solubility", "setting": "[1]; buffered aqueous cyclodextrin solution, pH 6.5, aqueous with cosolvent or surfactant or cyclodextrin, 40% SBE-β-cyclodextrin, pH 6.5 phosphate buffer, read-out: highest solubility value", "result": 1210, "unit": "µg/mL"},
      {"measurement": "solubility", "setting": "[1]; buffered aqueous cyclodextrin solution, pH 7.5, aqueous with cosolvent or surfactant or cyclodextrin, 40% HP-β-cyclodextrin, pH 7.5 phosphate buffer, read-out: highest solubility value", "result": 723, "unit": "µg/mL"},
      {"measurement": "SBE-β-CD/AOL molar ratio at which optimal solubilization was observed", "setting": "[2]", "result": "> 29"},
      {"measurement": "chemical stability on storage", "setting": "[3]; Tween 80 at 20% (w/w) aqueous media", "result": "chemical stability issues"},
      {"measurement": "solubility at 4 h", "setting": "[3]; Cremophor 10% (w/w)", "result": 545, "unit": "µg/mL"},
      {"measurement": "solubility at 4 h", "setting": "[3]; Cremophor 20% (w/w)", "result": 814, "unit": "µg/mL"},
      {"measurement": "solubility at 4 h", "setting": "[3]; PVP 12PF 0.5% (w/w)", "result": 296, "unit": "µg/mL"},
      {"measurement": "solubility at 4 h", "setting": "[3]; PVP 12PF 2.0% (w/w)", "result": 291, "unit": "µg/mL"},
      {"measurement": "solubility at 4 h", "setting": "[3]; Tween 80 2% (w/w)", "result": 329, "unit": "µg/mL"}
    ]}
  ]
}
